Results published in patent US7767659B2, “Synthesis of naturally occurring ecteinascidins and related compounds” (Pharma Mar, S.A., priority 2002, dated 2010).
Where two headings read alike, the source gives them in different places.

Legend:
A-549 = assay: cells; conditions: Homo sapiens, A549, 48 h
Experimental: (§1) This form of the assay employs 96 well cell culture microplates of 9 mm diameter (Faircloth, 1988; Mosmann, 1983). Most of the cell lines are obtained from American Type Culture Collection (ATCC) derived from different human cancer types.
(§2) Cells are maintained in RPMI 1640 10% FBS, supplemented with 0.1 g/l penicillin and 0.1 g/l streptomycin sulfate and then incubated at 37° C., 5% CO2 and 98% humidity. For the experiments, cells were harvested from subconfluent cultures using trypsin and resuspended in fresh medium before plating.
(§3) Cells are seeded in 96 well microtiter plates, at 5×10^3 cells per well in aliquots of 195 μl medium, and they are allowed to attach to the plate surface by growing in drug free medium for 18 hours. Afterward, samples are added in aliquots of 5 μl in a ranging from 10 to 10^−8 μg/ml, dissolved in DMSO/EtOH/PBS (0.5:0.5:99). After 48 hours exposure, the antitumor effect are measured by the SRB methodology: cells are fixed by adding 50 μl of cold 50% (wt/vol) trichloroacetic acid (TCA) and incubating for 60 minutes at 4° C. Plates are washed with deionized water and dried. One hundred μl of SRB solution (0.4% wt/vol in 1% acetic acid) is added to each microtiter well and incubated for 10 minutes at room temperature. Unbound SRB is removed by washing with 1% acetic acid. Plates are air dried and bound stain is solubilzed with Tris buffer. Optical densities are read on a automated spectrophotometric plate reader at a single wavelength of 490 nm.
(§4) The values for mean +/− SD of data from triplicate wells are calculated. Some parameters for cellular responses can be calculated: GI=growth inhibition, TGI=total growth inhibition (cytostatic effect) and LC=cell killing (cytotoxic effect).

HT-29 = assay: cells; conditions: Homo sapiens, HT-29, 48 h
Experimental: as §1, §2, §3, §4

LoVo = assay: cells; conditions: Homo sapiens, LoVo, 48 h; for GI50: read-out: LOVO GI50; for CC50: read-out: LOVO LC50; for IC (TGI): read-out: LOVO TGI
Experimental: as §1, §2, §3, §4

DU-145 = assay: Inhibition of cells growth by colorimetric assay (SRB); conditions: Homo sapiens, DU-145, 48 h
Experimental: as §1, §2, §3, §4

HeLa-APL = assay: as above; conditions: Homo sapiens, 48 h; for GI50: read-out: HELA-APL GI50; for CC50: read-out: HELA-APL LC50; for IC (TGI): read-out: HELA-APL TGI
Experimental: as §1, §2, §3, §4

HeLa = assay: as above; conditions: Homo sapiens, HeLa, 48 h; for GI50: read-out: HELA GI50; for CC50: read-out: HELA LC50; for IC (TGI): read-out: HELA TGI
Experimental: as §1, §2, §3, §4

IGROV-1 = assay: as above; conditions: Homo sapiens, IGROV-1, 48 h; for GI50: read-out: IGROV GI50; for CC50: read-out: IGROV LC50; for IC (TGI): read-out: IGROV TGI
Experimental: as §1, §2, §3, §4

IGROV-ET = assay: as above; conditions: Homo sapiens, 48 h; for GI50: read-out: IGROV-ET GI50; for CC50: read-out: IGROV-ET LC50; for IC (TGI): read-out: IGROV-ET TGI
Experimental: as §1, §2, §3, §4

K-562 = assay: as above; conditions: Homo sapiens, K562, 48 h; for GI50: read-out: K562 GI50; for CC50: read-out: K562 LC50; for IC (TGI): read-out: K562 TGI
Experimental: as §1, §2, §3, §4

LNCaP = assay: as above; conditions: Homo sapiens, LNCaP, 48 h
Experimental: as §1, §2, §3, §4

LoVo-Dox = assay: as above; conditions: Homo sapiens, 48 h; for GI50: read-out: LOVO-DOX GI50; for CC50: read-out: LOVO-DOX LC50; for IC (TGI): read-out: LOVO-DOX TGI
Experimental: as §1, §2, §3, §4

PANC-1 = assay: as above; conditions: Homo sapiens, PANC-1, 48 h; for GI50: read-out: PANC-1 GI50; for CC50: read-out: PANC-1 LC50; for IC (TGI): read-out: PANC-1 TGI
Experimental: as §1, §2, §3, §4

SK-BR-3 = assay: as above; conditions: Homo sapiens, SK-BR-3, 48 h; for GI50: read-out: SK-BR3 GI50; for CC50: read-out: SK-BR3 LC50; for IC (TGI): read-out: SK-BR3 TGI
Experimental: as §1, §2, §3, §4

SK-MEL-28 = assay: as above; conditions: Homo sapiens, SK-MEL-28, 48 h
Experimental: as §1, §2, §3, §4

`COc1c(C)cc2c(c1O)[C@H]1N[C@@H](C2)[C@H](O)N2C1[C@@H]1SC[C@]3(NCCc4c3[nH]c3ccc(C)cc43)C(=O)OC[C@H]2c2c3c(c(C)c(OC(C)=O)c21)OCO3` (stereo partly drawn) [compound 66] gave a GI50 (A-549; read-out: A549 GI50) of 7.62 nM, a CC50 (A-549; read-out: A549 LC50) of 874 nM and an IC (TGI) (A-549; read-out: A549 TGI) of 39.7 nM. It also gave a GI50 (HT-29; read-out: HT29 GI50) of 5.86 nM, a CC50 (HT-29; read-out: HT29 LC50) of 13200 nM and an IC (TGI) (HT-29; read-out: HT29 TGI) of 181 nM. It also gave a GI50 (LoVo) of 5.27 nM, a CC50 (LoVo) of 4350 nM and an IC (TGI) (LoVo) of 20.9 nM. For the same compound, the GI50 (DU-145; read-out: DU145 GI50) was 3.39 nM, the CC50 (DU-145; read-out: DU145 LC50) was 3860 nM and the IC (TGI) (DU-145; read-out: DU145 TGI) was 1.6 nM. For the same compound, the GI50 (HeLa-APL) was 3.05 nM, the CC50 (HeLa-APL) was 12.7 nM and the IC (TGI) (HeLa-APL) was 6.24 nM. For the same compound, the GI50 (HeLa) was 2.41 nM, the CC50 (HeLa) was 9.07 nM and the IC (TGI) (HeLa) was 4.68 nM. The GI50 (IGROV-1) was 2.99 nM, the CC50 (IGROV-1) was 160 nM and the IC (TGI) (IGROV-1) was 6.76 nM. The GI50 (IGROV-ET) was 38.3 nM, the CC50 (IGROV-ET) was 5590 nM and the IC (TGI) (IGROV-ET) was 179 nM. It also gave a GI50 (K-562) of 4.33 nM, a CC50 (K-562) of 484 nM and an IC (TGI) (K-562) of 12.5 nM. The GI50 (LNCaP; read-out: LNCAP GI50) was 1.99 nM, the CC50 (LNCaP; read-out: LNCAP LC50) was 7.39 nM and the IC (TGI) (LNCaP; read-out: LNCAP TGI) was 3.83 nM. It also gave a GI50 (LoVo-Dox) of 370 nM, a CC50 (LoVo-Dox) of 13200 nM and an IC (TGI) (LoVo-Dox) of 1890 nM. For the same compound, the GI50 (PANC-1) was 4.57 nM, the CC50 (PANC-1) was 6400 nM and the IC (TGI) (PANC-1) was 23.4 nM. It also gave a GI50 (SK-BR-3) of 6.5 nM, a CC50 (SK-BR-3) of 13200 nM and an IC (TGI) (SK-BR-3) of 331 nM. It also gave a GI50 (SK-MEL-28; read-out: MEL-28 GI50) of 5.34 nM, a CC50 (SK-MEL-28; read-out: MEL-28 LC50) of 74.5 nM and an IC (TGI) (SK-MEL-28; read-out: MEL-28 TGI) of 18.9 nM.

`CCC(=O)NC1CS[C@@H]2c3c(OC(C)=O)c(C)c4c(c3[C@H](COC1=O)N1C2[C@@H]2N[C@@H](Cc3cc(C)c(OC)c(O)c32)[C@@H]1C#N)OCO4` (stereo partly drawn) [compound 33] was tested, and the GI50 (A-549; read-out: GI50 A549) was 26.2 nM, the CC50 (A-549; read-out: LC50 A549) was 149 nM and the IC (TGI) (A-549; read-out: TGI A549) was 62.4 nM. The GI50 (HT-29; read-out: GI50 HT29) was 17.3 nM, the CC50 (HT-29; read-out: LC50 HT29) was 9810 nM and the IC (TGI) (HT-29; read-out: TGI HT29) was 271 nM. The GI50 (LoVo) was 19.9 nM, the CC50 (LoVo) was 145 nM and the IC (TGI) (LoVo) was 53.6 nM. It also gave a GI50 (DU-145; read-out: GI50 DU145) of 8.02 nM, a CC50 (DU-145; read-out: LC50 DU145) of 4410 nM and an IC (TGI) (DU-145; read-out: TGI DU145) of 15.6 nM. For the same compound, the GI50 (HeLa-APL) was 5.24 nM, the CC50 (HeLa-APL) was 115 nM and the IC (TGI) (HeLa-APL) was 19.1 nM. It also gave a GI50 (HeLa) of 5.02 nM, a CC50 (HeLa) of 96.9 nM and an IC (TGI) (HeLa) of 16.1 nM. The GI50 (IGROV-1) was 98.5 nM, the CC50 (IGROV-1) was 1580 nM and the IC (TGI) (IGROV-1) was 426 nM. It also gave a GI50 (K-562) of 5.49 nM, a CC50 (K-562) of 2830 nM and an IC (TGI) (K-562) of 159 nM. For the same compound, the GI50 (LNCaP; read-out: GI50 LNCAP) was 2.86 nM, the CC50 (LNCaP; read-out: LC50 LNCAP) was 11.1 nM and the IC (TGI) (LNCaP; read-out: TGI LNCAP) was 5.64 nM. For the same compound, the GI50 (LoVo-Dox) was 367 nM, the CC50 (LoVo-Dox) was 5900 nM and the IC (TGI) (LoVo-Dox) was 940 nM. It also gave a GI50 (PANC-1) of 19.9 nM, a CC50 (PANC-1) of 4510 nM and an IC (TGI) (PANC-1) of 122 nM. For the same compound, the GI50 (SK-BR-3) was 4.83 nM, the CC50 (SK-BR-3) was 385 nM and the IC (TGI) (SK-BR-3) was 13.9 nM. For the same compound, the GI50 (SK-MEL-28; read-out: GI50 MEL-28) was 12.8 nM, the CC50 (SK-MEL-28; read-out: LC50 MEL-28) was 97.9 nM and the IC (TGI) (SK-MEL-28; read-out: TGI MEL-28) was 36.7 nM.

For `COc1c(C)cc2c(c1O)[C@H]1N[C@@H](C2)[C@H](O)N2C1[C@@H]1SC[C@]3(NCCc4c3[nH]c3ccccc43)C(=O)OC[C@H]2c2c3c(c(C)c(OC(C)=O)c21)OCO3` (stereo partly drawn) [compound 63], the GI50 (A-549; read-out: A549 GI50) was 24 nM, the CC50 (A-549; read-out: A549 LC50) was 273 nM and the IC (TGI) (A-549; read-out: A549 TGI) was 61.4 nM. It also gave a GI50 (HT-29; read-out: HT29 GI50) of 9.17 nM, a CC50 (HT-29; read-out: HT29 LC50) of 13500 nM and an IC (TGI) (HT-29; read-out: HT29 TGI) of 327 nM. It also gave a GI50 (LoVo) of 8.63 nM, a CC50 (LoVo) of 13500 nM and an IC (TGI) (LoVo) of 54.8 nM. It also gave a GI50 (DU-145; read-out: DU145 GI50) of 3.48 nM, a CC50 (DU-145; read-out: DU145 LC50) of 4400 nM and an IC (TGI) (DU-145; read-out: DU145 TGI) of 7.24 nM. It also gave a GI50 (HeLa-APL) of 11 nM, a CC50 (HeLa-APL) of 150 nM and an IC (TGI) (HeLa-APL) of 39.8 nM. The GI50 (HeLa) was 3.16 nM, the CC50 (HeLa) was 12.5 nM and the IC (TGI) (HeLa) was 6.29 nM. It also gave a GI50 (IGROV-1) of 5.4 nM, a CC50 (IGROV-1) of 4.49 nM and an IC (TGI) (IGROV-1) of 15 nM. The GI50 (IGROV-ET) was 75.9 nM, the CC50 (IGROV-ET) was 13300 nM and the IC (TGI) (IGROV-ET) was 537 nM. It also gave a GI50 (K-562) of 3.86 nM, a CC50 (K-562) of 634 nM and an IC (TGI) (K-562) of 7.92 nM. It also gave a GI50 (LNCaP; read-out: LNCAP GI50) of 2.86 nM, a CC50 (LNCaP; read-out: LNCAP LC50) of 10 nM and an IC (TGI) (LNCaP; read-out: LNCAP TGI) of 5.36 nM. It also gave a GI50 (LoVo-Dox) of 398 nM, a CC50 (LoVo-Dox) of 13500 nM and an IC (TGI) (LoVo-Dox) of 1090 nM. The GI50 (PANC-1) was 4.6 nM, the CC50 (PANC-1) was 4270 nM and the IC (TGI) (PANC-1) was 17.4 nM. For the same compound, the GI50 (SK-BR-3) was 3.93 nM, the CC50 (SK-BR-3) was 198 nM and the IC (TGI) (SK-BR-3) was 8.98 nM. The GI50 (SK-MEL-28; read-out: MEL-28 GI50) was 5.64 nM, the CC50 (SK-MEL-28; read-out: MEL-28 LC50) was 52.6 nM and the IC (TGI) (SK-MEL-28; read-out: MEL-28 TGI) was 17 nM.
